Experimental data from PMC12257397, “Scaffold Hopping Strategy toward New 4‑Aminoquinazolines Active Against Extracellular and Intracellular Mycobacterium tuberculosis” (ACS Medicinal Chemistry Letters, 2025).
Converted amounts (≈) assume the structure as drawn. Where two headings read alike, the source gives them in different places.

Legend:
[1] = system: M. tuberculosis H37Rv (ATCC 27294); experiment: MIC by resazurin reduction microplate assay (REMA); assay type: cell-based; details: Mycobacterium tuberculosis, converted from μg/mL to μM
[2] = system: M. tuberculosis H37Rv-LP (ATCC 25618); experiment: microbe, parasite or virus in culture; assay type: cell-based; details: concentration inhibiting 90% of growth, 5 days, read-out: MIC parental wild-type strain H37Rv-LP
[3] = system: H37Rv-LP (ATCC 25618) inside THP-1 cells; experiment: microbe, parasite or virus in culture; assay type: cell-based; details: Mycobacterium tuberculosis, 72 hours
[4] = system: Staphylococcus aureus (ATCC 29213); experiment: Antimicrobial spectrum MIC, S. aureus; assay type: cell-based
[5] = system: Escherichia coli RFM 795; experiment: Antimicrobial spectrum MIC, E. coli; assay type: cell-based; details: Escherichia coli RFM 795 (lptD mutation)
[6] = system: Mycobacterium abscessus 103R; experiment: Antimicrobial spectrum MIC, M. abscessus; assay type: cell-based
[7] = system: Mycobacterium avium 2285S (smooth); experiment: Antimicrobial spectrum MIC, M. avium smooth; assay type: cell-based
[8] = system: Mycobacterium avium 2285R (rough); experiment: Antimicrobial spectrum MIC, M. avium rough; assay type: cell-based
[9] = system: Mycobacterium smegmatis mc2155; assay type: cell-based
[10] = Microsomal stability, mouse liver microsomes (MLM); assay type: in vitro ADME; details: male, BALB/c, pH 7.4
Experimental: (§1) 1.5. Microsomal stability
(§2) Test compound (6 μM) was incubated at 37 °C with male BALB/c mouse liver microsomes or mixed gender human liver microsomes (Xenotech LLC; 0.5 mg /mL, […] potassium phosphate buﬀer, pH 7.4) and the reaclon started with addilon of excess NADPH (2 mM, pH 7.4). Samples (35 µL) were removed at lme 0, 5, 10, 20, 30, and 60 min and mixed with 35 µL of acetonitrile, methanol, wate r s o l u lon (2:1:1) containing […] internal standard terfenadine and 0.05% v/v acelc acid. The samples were centrifuged at 4000 rpm for 10 min and the supernatant was analyzed using a 1100 HPLC and Single Quad 6120 (Agilent, USA). Compounds were tested in duplic ate, and an exponenlal decay curve ﬁt was used on the ralo of peak area of test compound to internal standard at each lme point to calculate the rate constant (k). The rate of intrinsic clearance (CLint) of each test compound was then calculated using the following equalon: CLint (mL/min/mg) = k x V where V was mL/mg protein. Verapamil (6 μM) was used as a posilve control. Incubalon of each compound with microsomes in the absence of NADPH and analyzed at 0 and 60 min was used as the negalve control.
(§3) The human biological samples were sourced ethically, and their research use was in accord with the terms of the informed consents.

[11] = Microsomal stability, human liver microsomes (HLM); assay type: in vitro ADME; details: both sexes, pH 7.4
Experimental: as §1, §2, §3

[12] = in vitro; details: human
[13] = in vitro; details: human; remark: listed apart in the source
[14] = in vitro; details: human; remark: listed apart in the source
[15] = Mycobacterium tuberculosis, 120 h

SMILES | MIC [1] [µM] | MIC [2, 15] [µM] | CC50 at 72 h ([14]; CC50 HepG2+Gal) [µM] | CC50 at 72 h ([14]; CC50 HepG2+Glu) [µM] | further results
COc1ccc2nc(C)nc(NCCCc3ccccc3)c2c1 [18b] | 4.1 (≈ 1.26 µg/mL) | 1.5 (≈ 0.461 µg/mL) | 11 | 13.9 | IC50 ([3]; growth of H37Rv-LP inside THP-1 cells inhibited by 50%, read-out: Intracellular IC50): 0.84 µM; IC90 ([3]; growth of H37Rv-LP inside THP-1 cells inhibited by 90%, read-out: Intracellular IC90): 1.9 µM; CIM 29213 [4]: > 100 µM; CIM RFM 795 [5]: 54 µM; CIM 103R [6]: > 100 µM; CIM 2285S [7]: > 100 µM; CIM 2285R [8]: > 100 µM; CIM mc2155 [9]: > 32.5 µM; microsomal CLint at 6 μM ([10]; mouse, microsomes): 530 µL/min/mg; remaining at 10 min, 6 μM ([10]; mouse, microsomes): 7%; half-life at 6 μM ([10]; mouse liver microsomes, read-out: MLM t1/2): 2.6 min; microsomal CLint at 6 μM ([11]; human, microsomes): 252 µL/min/mg; remaining at 20 min, 6 μM ([11]; human, microsomes): 8%; half-life at 6 μM ([11]; human liver microsomes, read-out: HLM t1/2): 5.5 min; CC50 at 72 h [12]: > 20 µM; CC50 at 72 h [13]: 17 µM
Cc1nc(NCCc2ccc(OC(F)(F)F)cc2)c2cc(Br)ccc2n1 [13c] | 5.9 (≈ 2.51 µg/mL) | 3.4 (≈ 1.45 µg/mL) | 1 | 1.5 | CC50 at 72 h [12]: < 1 µM; CC50 at 72 h [13]: < 1 µM
CCc1ccc(CCNc2nc(C)nc3ccc(I)cc23)cc1 [16d] | 6 (≈ 2.5 µg/mL) | 1.9 (≈ 0.793 µg/mL) | 5.3 | 7.4 | CC50 at 72 h [12]: 8.3 µM; CC50 at 72 h [13]: 8.3 µM
Cc1nc(NCCc2ccc(Cl)cc2)c2ccccc2n1 [11a] | 16.8 (≈ 5 µg/mL) | – | – | – | –
Cc1nc(NCCc2ccc(S(N)(=O)=O)cc2)c2ccccc2n1 [14a] | > 117 | – | – | – | –
COc1ccc(CCNc2nc(C)nc3ccccc23)cc1 [10a] | 34.1 (≈ 10 µg/mL) | – | – | – | –
COc1ccc(CCNc2ncnc3ccccc23)cc1 [10e] | 71.6 (≈ 20 µg/mL) | – | – | – | –
COc1ccc(CCNc2nc(C)nc3ccc(I)cc23)cc1 [10d] | 1.5 (≈ 0.629 µg/mL) | 0.92 (≈ 0.386 µg/mL) | 6.4 | 10.8 | –
Cc1nc(NCCc2ccc3ccccc3c2)c2cc(I)ccc2n1 [17d] | 1.4 (≈ 0.615 µg/mL) | 1.4 (≈ 0.615 µg/mL) | 5.2 | 7.1 | –
COc1ccc(CCNc2nc(C)nc3ccc(Br)cc23)cc1 [10c] | 13.4 (≈ 4.99 µg/mL) | – | – | – | –
Cc1nc(NCCc2ccccc2)c2cc(Br)ccc2n1 [9c] | 7.3 (≈ 2.5 µg/mL) | – | – | – | –
c1ccc(CCCNc2ncnc3ccccc23)cc1 [18e] | 19 (≈ 5 µg/mL) | 24 (≈ 6.32 µg/mL) | 2.5 | 10.9 | CC50 at 72 h [12]: < 1 µM; CC50 at 72 h [13]: < 1 µM
COc1ccc2nc(C)nc(NCCc3ccc(Cl)cc3)c2c1 [11b] | 30.5 (≈ 10 µg/mL) | – | – | – | –
COc1ccc2nc(C)nc(NCCc3ccc(S(N)(=O)=O)cc3)c2c1 [14b] | > 107 | – | – | – | –
Cc1ccc(CCNc2nc(C)nc3ccc(I)cc23)cc1 [15d] | 3.1 (≈ 1.25 µg/mL) | 0.48 (≈ 0.194 µg/mL) | 6.6 | 11.4 | CC50 at 72 h [12]: 10.2 µM; CC50 at 72 h [13]: 10.6 µM
c1ccc(C(CNc2ncnc3ccccc23)c2ccccc2)cc1 [12e] | > 30.7 | – | – | – | –
CCc1ccc(CCNc2nc(C)nc3ccc(OC)cc23)cc1 [16b] | 15.6 (≈ 5.01 µg/mL) | – | – | – | –
CCc1ccc(CCNc2nc(C)nc3ccccc23)cc1 [16a] | 17.2 (≈ 5.01 µg/mL) | – | – | – | –
FC(F)(F)Oc1ccc(CCNc2ncnc3ccccc23)cc1 [13e] | 60 (≈ 20 µg/mL) | – | – | – | –
Cc1nc(NCC(c2ccccc2)c2ccccc2)c2cc(I)ccc2n1 [12d] | > 21.5 | – | – | – | –
CN[C@@H]1C[C@H]2O[C@@](C)([C@@H]1OC)n1c3ccccc3c3c4c(c5c6ccccc6n2c5c31)C(=O)NC4 [21 (STA), staurosporine, reference compound] | – | – | – | – | CC50 ([14]; CC50 HepG2+Gal): 0.04 µM; CC50 ([14]; CC50 HepG2+Glu): 0.03 µM
Cc1nc(NCCc2ccc(Cl)cc2)c2cc(Br)ccc2n1 [11c] | 13.3 (≈ 5.01 µg/mL) | – | – | – | –
Cc1ccc(CCNc2ncnc3ccccc23)cc1 [15e] | > 38 | – | – | – | –
Cc1nc(NCCc2ccc3ccccc3c2)c2cc(Br)ccc2n1 [17c] | 3.2 (≈ 1.26 µg/mL) | 2.5 (≈ 0.981 µg/mL) | 1.8 | 4.6 | CC50 at 72 h [12]: < 1 µM; CC50 at 72 h [13]: < 1 µM
CCc1ccc(CCNc2nc(C)nc3ccc(Br)cc23)cc1 [16c] | 6.8 (≈ 2.52 µg/mL) | 2 (≈ 0.741 µg/mL) | 1.6 | 4 | MIC [2]: 2.0 µM (≈ 0.741 µg/mL)
Cc1nc(NCCc2ccc3ccccc3c2)c2ccccc2n1 [17a] | 8 (≈ 2.51 µg/mL) | – | – | – | –
Clc1ccc(CCNc2ncnc3ccccc23)cc1 [11e] | > 35.2 | – | – | – | –
